According to patent US10781232B2, “Sugar-dipeptide conjugates as flavor molecules” (NESTEC S.A., priority 2015, dated 2020):

How the values were obtained:
Format in all cases: in vivo, human
[1] = Sensory evaluation of tomato soups with and without the compound; details: compound added at 2 g/L; 6 g tomato base powder in 500 mL hot water
Protocol: 1-Deoxy-D-fructosyl-N-β-alanyl-L-histidine or alternatively 1-deoxy-D-fructosyl-N-β-alanyl-N-methyl-L-histidine was added at 2 g/L to the soups.

[2] = Sensory evaluation of chicken soups with and without the compound; details: compound added at 2 g/L; chicken base powder 6 g and 1 g monosodium glutamate in 500 mL hot water; 12 panelists
Protocol: Chicken soups were prepared by dissolving 6 g chicken base powder (detailed recipe shown in Table 3) and 1 g monosodium glutamate in 500 mL hot water. 1-Deoxy-D-fructosyl-N-β-alanyl-L-histidine or alternatively 1-deoxy-D-fructosyl-N-β-alanyl-N-methyl-L-histidine was added at 2 g/L.
The sensory evaluation was carried out by 12 panelists, previously screened for their sensory abilities. The panelists were asked to taste a set of 2 chicken soups, one containing no 1-deoxy-D-fructosyl-N-β-alanyl-L-histidine and one containing 1-deoxy-D-fructosyl-N-β-alanyl-L-histidine (2 g/L). If sensory differences were observed, the panelists were asked to describe them.
The same sensory evaluation was carried out with the chicken soup samples with and without containing 1-deoxy-D-fructosyl-N-β-alanyl-N-methyl-L-histidine at 2 g/L broth.

[3] = Taste threshold concentration in model broth, three-alternative test by sensory panel; details: thick-sour sensation and white-meaty oral impression, value in brackets
Protocol: The sensory tests were performed in a sensory panel room at 20-25° C. To avoid a retro-nasal aroma or taste impression, nose clips were used. The sensory panel consisted of 8 to 14 trained persons. The panel was trained to evaluate the taste of aqueous solutions (1 mL each) of the following standard taste compounds by using a triangle test: saccharose (50 mmol/L) and L-alanine (15 mmol/L), respectively, for sweet taste; lactic acid (20 mmol/L) for sour taste; NaCl (12 mmol/L) for salty taste; caffeine (1 mmol/L) and quinine hydrochloride (0.05 mmol/L), respectively, for bitter taste; sodium glutamate (8 mmol/L, pH 5.7) for umami taste; and tannin (0.05%) for astringency. The “white meaty” oral sensations was assessed in a model broth solution prepared from monosodium glutamate monohydrate (1.9 g/L), yeast extract (2.1 g/L), maltodextrin (6.375 g/L) and sodium chloride (2.9 g/L) in bottled water (pH 5.9).
The taste threshold concentration of β-alanyl-L-histidine was determined in the model broth using a three-alternative test with two blanks and one sample in ascending concentrations of β-alanyl-L-histidine.
This taste threshold value is considerably lower than the 22′700 μmol/L (5.3 mg/g) threshold level determined for the corresponding β-alanyl-L-histidine under the same experimental model system (see Example 5). […]

Structure (SMILES) | sensory panel conclusion on flavour of tomato soup [1] | sensory panel conclusion on flavour of chicken soup [2] | taste threshold concentration [3] [mg/g]
Cn1cncc1C[C@H](NC(=O)CCNCC(=O)[C@@H](O)[C@H](O)[C@H](O)CO)C(=O)O [1-deoxy-D-fructosyl-N-β-alanyl-N-methyl-L-histidine] | increased significantly the savory, spicy notes | significantly increased the boiled chicken and meaty flavours | 
NCCC(=O)N[C@@H](Cc1c[nH]cn1)C(=O)O [β-alanyl-L-histidine] |  |  | 5.3
